Results published in patent US20050118675A1, “Heptahelix receptor and its use as leukotriene B4 receptor” (Owman Investment Ltd., priority 1997, published 2005).
“Also recorded” adds a separate entry of the source.

Legend:
CMKRL1 [1] = biological target: T1, CMKRL1 (Homo sapiens, UniProt Q15722); assay: Intracellular calcium (Fura-2) in CHO cells stably expressing CMKRL1; format: cell-based; conditions: 1000 nM LTB4
T1 construct: A full-length cDNA (Lyme21-9) encoding a novel putative seven-transmembrane (7TM) domain receptor, named CMKRL1; expressed in transfected cells
T1 sequence (Q15722 whole entry): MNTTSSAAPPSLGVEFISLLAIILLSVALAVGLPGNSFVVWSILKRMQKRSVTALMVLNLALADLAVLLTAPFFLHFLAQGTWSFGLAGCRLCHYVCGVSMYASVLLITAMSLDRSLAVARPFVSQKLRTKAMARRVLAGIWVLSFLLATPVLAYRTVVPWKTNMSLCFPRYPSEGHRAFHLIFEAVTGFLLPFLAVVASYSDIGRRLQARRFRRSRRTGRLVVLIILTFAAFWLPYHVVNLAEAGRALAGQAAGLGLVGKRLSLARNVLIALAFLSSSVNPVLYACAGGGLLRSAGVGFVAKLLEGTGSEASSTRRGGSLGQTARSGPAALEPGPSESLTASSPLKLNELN
Description: (§1) Intact plasmid DNA (10-25 μg) of the cDNA clone, Lyme21-9 (1), was transfected using the calcium phosphate precipitation method. Chinese hamster ovary cells (CHO-K1) were used to establish stable expression of the corresponding receptor, CMKRL1. The pCDneo vector was co-transfected to allow for selection with G-418)Geneticin, 500 μg/ml). Single resistant colonies were isolated to obtain homogenous cell lines, and appropriate expression of the corresponding mRNA were verified by Northern blot hybridization with cDNA probes. SV40 transformed African green monkey kidney cells (COS-7) were used for transient expression. These cells were harvested after 48 hrs for preparation and isolation of membranes. Sham-transfected cells were used as controls throughout. […]
Agonists were added in 50 μl of extracellular medium buffer and mixed thoroughly with the original contents of the well. Fluorescence images were obtained by alternate excitation at 340 and 380 nm, and the emitted light was measured at 510 nm. The software configuration allowed for storage of fluorescence information from groups of cells, which could then be analyzed separately. Intracellular calcium concentrations were calibrated using the method described by William and Fay (5) and calculated from the aforementioned radiometric images using the mathematical relationship described by Grynkiewicz et al. (6). […]

[2] = system: sham-transfected COS-7 cells; assay: [3H]LTB4 binding to membranes from sham-transfected COS-7 cells; parameters: species or system African green monkey
Description: (§2) Intact plasmid DNA (10-25 μg) of the cDNA clone, Lyme21-9 (1), was transfected using the calcium phosphate precipitation method. Chinese hamster ovary cells (CHO-K1) were used to establish stable expression of the corresponding receptor, CMKRL1. The pCDneo vector was co-transfected to allow for selection with G-418)Geneticin, 500 μg/ml). Single resistant colonies were isolated to obtain homogenous cell lines, and appropriate expression of the corresponding mRNA were verified by Northern blot hybridization with cDNA probes. SV40 transformed African green monkey kidney cells (COS-7) were used for transient expression. These cells were harvested after 48 hrs for preparation and isolation of membranes. Sham-transfected cells were used as controls throughout.
The transiently transfected COS-7 cells were washed with PBS, which was replaced with 50 mM TRIS/HCl buffer (pH 7.4) containing 1 mM EGTA and 5 mM MgCl2, and scraped off. After homogenization for 20 sec in a Polytron homogenizer (Brinkmann, setting 5.5) the material was centrifuged at 20,000 rpm for 30 min at 4° C., followed by washing through homogenization in the TRIS binding buffer and subsequent recentrifugation, which was repeated twice. The pellet was finally resuspended by homogenization and stored in liquid nitrogen until used. […]

[3] = system: sham-transfected control cells; assay: Intracellular calcium (Fura-2) in sham-transfected CHO control cells; format: cell-based, Chinese hamster; conditions: any dose level, shown for 1000 nM
Description: as §1, with “expression.” for “expression. These cells were harvested after 48 hrs for preparation and isolation of membranes. Sham-transfected cells were used as controls throughout.”
Transfected cells were seeded into 96-well plates (Corning-Costar) by dissociating confluent cultures using PBS containing 2 mM EDTA, diluting the resulting suspension 20×, and adding 50 μl per well. […] After 3 washes in extracellular medium buffer (135 mM NaCl, 4.6 mM KCl, 1.2 MM MgCl2, 1.5 mM CaCl2, 11 mM glucose, 11 mM Hepes, pH 7.4), the plates were mounted on the stage of a Nikon inverted fluorescence microscope attached to an SIT-camera and an image analysis system (Photon Technology International). […]
Agonists were added in 50 μl of extracellular medium buffer and mixed thoroughly with the original contents of the well. Fluorescence images were obtained by alternate excitation at 340 and 380 nm, and the emitted light was measured at 510 nm. […]

CMKRL1 [4] = biological target: T1, CMKRL1; assay: [3H]LTB4 saturation binding to membranes from COS-7 cells transiently transfected with Lyme21-9 cDNA; conditions: for Bmax: Scatchard analysis, COS-7 membranes, 4° C.; for binding sites identified: saturation binding, linear Scatchard plot
Description: as §2
The transiently transfected COS-7 cells were washed with PBS, which was replaced with 50 mM TRIS/HCl buffer (pH 7.4) containing 1 mM EGTA and 5 mM MgCl2, and scraped off. After homogenization for 20 sec in a Polytron homogenizer (Brinkmann, setting 5.5) the material was centrifuged at 20,000 rpm for 30 min at 4° C., followed by washing through homogenization in the TRIS binding buffer and subsequent recentrifugation, which was repeated twice. The pellet was finally resuspended by homogenization and stored in liquid nitrogen until used. For the binding studies, membrane material corresponding to 30 μg protein ([…]) was blended with ice-cold binding buffer (0.02 M Hepes buffer containing 10 mM CaCl2 and MgCl2) to a final volume of 70 μl and added to wells in a 96-well polypropylene plate. […] Each data point is the result of the mean of triplicate wells from three separate experiments, which have in turn been averaged.

Row | Structure (SMILES) | increase in intracellular calcium in calcium-free medium (CMKRL1 [1]) | specific binding [2] | effect on intracellular calcium in sham-transfected control cells [3] | Bmax (CMKRL1 [4]) | Bmax (CMKRL1 [4]; listed as tritiated LTB4) | Non-specific binding as share of the total binding (CMKRL1 [4]; binding of tritiated ligand in the presence of 1 μM non-labelled ligand) | binding sites identified (CMKRL1 [4]) | binding sites identified (CMKRL1 [4]; listed as tritiated LTB4)
1 | CCCCC/C=C\C[C@@H](O)/C=C/C=C/C=C\[C@@H](O)CCCC(=O)O [LTB4, leukotriene B4] | no longer included any significant increase; also recorded: No response | No binding | completely without effect; also recorded: No response; also recorded: No binding or activation |  |  |  |  | 
2 | CCCCC/C=C\C[C@@H](O)/C=C/C=C\C=C\[C@@H](O)CCCC(=O)O [[^3H]LTB4] |  | no specific binding |  | 17.0 ± 2.0 pmoles/mg protein | 17.0 pmoles/mg protein | less than 15% | single class of high-affinity binding sites | binds with high affinity to a single receptor population
